{"source": "patent US8110528B2", "about": "“Active ingredient combinations with insecticidal properties” (Bayer Cropscience AG, priority 2006, dated 2012)", "key": {"Phaedon cochleariae": {"system": "Phaedon cochleariae", "assay": "Phaedon cochleariae larvae test (cabbage leaf dip)", "type": "in vivo, mustard beetle (Phaedon cochleariae) larvae", "settings": "cabbage leaves dipped", "source_text": "(§1) The expected activity for a given combination of two active compounds can be calculated according to S. R. Colby, Weeds 15 (1967), 20-22 as follows: • If • X is the kill rate, expressed in % of the untreated control, when active compound A is applied at an application rate of m g/ha or at a concentration of m ppm, • Y is the kill rate, expressed in % of the untreated control, when active compound B is applied at an application rate of n g/ha or at a concentration of n ppm and • E is the kill rate, expressed in % of the untreated control, when active compounds A and B are applied at application rates of m and n g/ha or at a concentration of m and n ppm, then\n(§2) If the actual insecticidal kill rate is greater than calculated, the kill of the combination is superadditive, i.e. there is a synergistic effect. In this case, the actual observed kill rate has to be greater than the value for the expected kill rate (E) calculated from the formula given above.\n• Solvent: 7 parts by weight of dimethylformamide • Emulsifier: 2 parts by weight of alkylaryl polyglycol ether\nTo produce a suitable preparation of active compound, 1 part by weight of active compound is mixed with the stated amounts of solvent and emulsifier, and the concentrate is diluted with emulsifier-containing water to the desired concentration.\nCabbage leaves (Brassica oleracea) are treated by being dipped into the preparation of active compound of the desired concentration and populated with larvae of the mustard beetle (Phaedon cochleariae) while the leaves are still moist.\nAfter the desired period of time, the kill in % is determined. 100% means that all beetle larvae have been killed; 0% means that none of the beetle larvae have been killed. The kill rates determined are entered into the Colby formula (see sheet 1)."}, "Myzus persicae": {"system": "Myzus persicae", "assay": "Myzus persicae test (cabbage leaf dip)", "type": "in vivo, green peach aphid (Myzus persicae)", "settings": "cabbage leaves dipped", "source_text": "as §1, §2\n• Solvent: 7 parts by weight of dimethylformamide • Emulsifier: 2 parts by weight of alkylaryl polyglycol ether […]\nAfter the desired period of time, the kill in % is determined. […] The kill rates determined are entered into the Colby formula (see sheet 1)."}}}
{"compound": "O=C1C=C(N(Cc2ccc(Cl)nc2)C2CC2)CO1", "note": "[compound (Ib)]", "values": [{"measurement": "Kill in % after 6d", "setting": "Phaedon cochleariae; 20 ppm", "value": 11, "unit": "%"}, {"measurement": "Kill in % after 6d", "setting": "Myzus persicae; 0.8 ppm", "value": 25, "unit": "%"}]}
{"compound": "CN(Cc1ccc(Cl)nc1)C1=CC(=O)OC1", "note": "[compound (Ia)]", "values": [{"measurement": "Kill in % after 4d", "setting": "Phaedon cochleariae; 20 ppm", "value": 5, "unit": "%"}]}
{"compound": "CN/C(=N\\[N+](=O)[O-])NCc1cnc(Cl)s1", "note": "[clothianidin]", "values": [{"measurement": "Kill in % after 4d", "setting": "Phaedon cochleariae; 4 ppm", "value": 25, "unit": "%"}, {"measurement": "Kill in % after 6d", "setting": "Phaedon cochleariae; 4 ppm", "value": 21, "unit": "%"}, {"measurement": "Kill in % after 6d", "setting": "Myzus persicae; 0.16 ppm", "value": 35, "unit": "%"}]}
